Key:
Assay type in all cases: in vivo, mouse
C57BL6/J mice = assay: Hind limb ischemia in type 1 diabetes model, laser Doppler perfusion
Procedure: Male C57BL6/J mice 8-10 weeks of age were obtained from Australian BioResources (Moss Vale, NSW) with 12 hour light/dark cycles and free access to water and mouse chow (Specialty Feeds, Australia). Mice were housed in groups of 2-5 in standard cages within a Physical Containment Level 2 laboratory. For in vivo angiogenesis 16 mice underwent the femoral vascular ligation model. Mice were anaesthetized with 1.5-2% isoflurane vaporized in oxygen and constant body temperature was maintained. All mice received pre-operative and 24-hour post-operative analgesia (carprofen, 5 mg/kg s.c). A small incision (˜15 mm) was made in the hind limb skin directly over the femoral vasculature. A portion of the femoral artery and vein, distal to the origin of the profunda femoris artery and proximal to the saphenous artery, were isolated and two ligations were performed using 6-0 silk sutures. The femoral artery and vein were then excised between the ligation sites 27. […] Hind limb blood flow was assessed prior to ligation (baseline) and immediately after undergoing hind limb ischemia, with subsequent imaging at day 3, 7, 10, 14, 21 and 28 post hind limb ischemia. […] The rate of reperfusion in the hind limb was calculated as a ratio of blood flow in the ischemic versus non-ischemic contralateral limb. […]

nitrotyrosine = assay: Immunoblot of nitrotyrosine in hind limb tissue; details: ischemic hind limbs of type 1 diabetic mice
Procedure: Gastrocnemius samples were stored at −80° C. and then mechanically homogenized in ice-cold lysis buffer containing 150 mmol/L NaCl, 200 mmol/L Tris-HCl (pH 8.0), 1% Triton X-100, 0.5% deoxycholic acid, 0.1% SDS, N-ethylmaleimide (25 mM) and protease inhibitors (cOmplete™ EDTA-free, Roche Diagnostics). 30 μg of protein lysate was denatured and run under reducing conditions on SDS-PAGE (Bolt™ pre-cast gels and reagents, Thermofisher Scientific, Australia) and transferred onto Immobilon polyvinylidene fluoride membrane (Merck Millipore, Australia). Membranes were incubated in primary antibodies directed at determining protein expression of the following: Nox isoforms (anti-Nox 2, 1:5000; Abcam, Australia; anti-Nox-4, 1:5000; Abcam, Australia); reactive nitrogen species (anti-nitrotyrosine, 1:1000; Abcam, Australia); and both expression and phosphorylation of eNOS (anti Phospho eNOS serine 1177, 1:1000, Cell Signaling Technology, USA; anti-eNOS 1:1000, BD Biosciences, USA) and Akt (anti Phospho Akt 1:1000, Akt 1:1000, Cell Signaling Technology, USA). Specific secondary antibodies recognizing rabbit or mouse primary antibodies were used (IRDye®, Licor; 1:20,000, USA). Membranes were detected using an Odyssey imaging platform (Licor, USA).

[1] = Glucose tolerance testing in type 2 diabetes model
Procedure: Glucose tolerance testing was conducted in fasted type 2 diabetic mice. Rodent chow was removed overnight and testing was conducted in the morning. After baseline glucose testing mice were injected intraperitoneal with sterile D-glucose (2 g/kg). Repeated blood glucose sampling was conducted every 15-30 minutes for 2 hours.

## C[C@H](Cc1ccc2c(c1)OC(C(=O)[O-])(C(=O)[O-])O2)NC[C@H](O)c1cccc(Cl)c1.[Na+].[Na+] [CL 316,243]
C57BL6/J mice; citrate-buffer treated (non-diabetic) mice, also 14-28 days post-ischemia
  perfusion ratio: not different from vehicle controls
C57BL6/J mice; type 1 diabetes mice, from 14 days onwards, 1 mg/kg/day s.c., vs vehicle
  greater ischemic-non-ischemic ratio (reperfusion): ~20
nitrotyrosine
  decrease of nitrotyrosine protein levels: > 70%
[1]; fasted for glucose tolerance tests, did not reach significant difference
  fasted blood glucose levels: appeared lower
[1]; non-hyperglycemic, non-diabetic controls
  glucose tolerance: even improved
[1]; type 2 diabetic mice
  glucose tolerance: improved

Reference: US20240148701A1, “WOULD HEALING METHODS” (The University of Sydney, priority 2021, published 2024)
